Test results from patent US20220087990A1, “APPLICATION OF RIFAMYCIN-QUINOLIZIDONE CONJUGATE MOLECULE AND PHARMACEUTICALLY ACCEPTABLE SALT THEREOF” (priority 2019, published 2022).
Like-named read-outs stand apart in the source and are kept apart here.

Tests used:
Format in all cases: in vivo, Staphylococcus aureus; Balb/c mice
[1] = system: quinolone-resistant Staphylococcus aureus CB1823 (parC^S80F); conditions: I 30 mg/kg, rifampicin+levofloxacin 20+25 mg/kg
[2] = system: Staphylococcus aureus CB1857 (parC^S80F+norA^up); assay: Mouse subcutaneous catheter implant biofilm infection model
Experimental: (§1) Test Drug: rifamycin-quinolizidone conjugate molecule I was provided by TenNor Therapeutics, Ltd., and was stored at −20° C. Other test compounds and reagents are commercially available. […] For remaining test agents, aqueous vehicles of sterile water, 5% sodium bicarbonate or 0.9% normal saline were added to the compound shown in formula I. The rifamycin-quinolizidone conjugate molecule formulation shown in formula I was administered at 30 mg/kg.
(§2) Bacteria: The bacteria used were biofilm forming Staphylococcus aureus strains. These were a wild-type parent biofilm strain CB1406 and it's isogenic fluoroquinoline-resistant derivatives CB1823 (parC^S80F), CB1840 (norA^up) and CB1857 (parC^S80F30 norA^up). Minimal inhibit concentrations (MICs) were determined by broth microdilution assays recommended by CLSI.
(§3) Test animals: female 5-6 week old Balb/c mice were used in this embodiment. The mice had free access to food and water during the course of this test and animal procedures were compliant with UNTHSC Institutional Animal Care and Use Committee (IACUC) guidelines.
(§4) In vitro preparation of colonized implants: Teflon venous catheters (14-Guage AbboCath-T #271-1000 or Braun Introcan #425 2594) were cut into 1 cm segments, sterilized by soaking in 70% ethanol for 15 minutes, dried under UV light for 20 minutes followed by aseptic placement in sterile 1.5 mL polypropylene tubes warmed to 37° C. Inocula were prepared by growing overnight broth cultures, which were diluted in 1:10 in tryptic soy broth plus 0.25% glucose (TSBG) and incubated with 250 rpm at 37° C. for 1 hour. Cultures were diluted to 1.0E+0^6 CFU/mL in 37° C. TSBG, 1 mL was added to each catheter tube, incubated at 37° C. without shaking for an additional 2.5 hours, and then cooled to 18° C. to slow growth until implant surgeries were completed.
(§5) Formation and treatments of subcutaneous implant infections: the mice were anesthetized with isoflurane vapors (4 L/min). Each flank was shaved, sterilized with ethanol/betadine and two 3 mm incisions made. Subcutaneous pockets were excavated, then catheter segments pre-colonized with adherent bacteria inserted into the pockets closed with surgical staples. The mice were returned to their cages and regularly monitored for adverse reactions. Treatments were initiated one week post surgery (bacterial colonization and biofilm formation) twice daily by intraperitoneal injections (IP) for 7 days, 7 days treatment plus a 7 days rebound period with no treatment and 7 days treatment plus 7 days rebound+7 days re-treatment with 5 mice (total 10 implants) per treatment or sampling group. Implant-associated bacteria were monitored by sampling colonized catheter segments during the course of implant surgeries and at regular intervals for up to 28 days post infection.
(§6) Sampling of infected implants: infected mice were euthanized by CO2 inhalation, then flanks were sterilized with 70% ethanol, and the infected catheter segments were excised into 1 mL of phosphate buffered saline pH 7.2 (1×PBS). Bacteria that adhered to the internal surfaces of explanted catheter segments were mechanically disrupted (aseptically) by repeated draws/dispenses of 200 μL 1×PBS from a micropipette tip inserted into catheter lumens, followed by 5 min vortexing at high speed. Explanted samples were then snap frozen in dry ice/ethanol and stored at −80° C. until CFU counts were determined.
(§7) CFU count determination: the catheters were rapidly thawed in a 37° C. water bath, and vortexed for 2 minutes, serially diluted and spotted (8 μL) on agar plates. Viable cell counts for efficacy were determined by plating on drug free Charcoal or MHII agar plates. […] The detection limit for all CFU determinations was less than or equal to 2.09 log10 CFU/implant.
(§8) The counts were multiplied by the serial dilution factor. The resulting raw values were converted to log10 CFU for calculation of means and standard deviations.

[3] = system: quinolone-resistant Staphylococcus aureus CB1823 (parC^S80F); conditions: for log10 CFU reduction in bacterial counts: rebound regimen
Experimental: as §1, §2, §3, §4, §5, §6, §7, §8

[4] = system: S. aureus CB1406, CB1823, CB1840 and CB1857; conditions: rebound dosing regimen, mean over strains
Experimental: as §1, §2, §3, §4, §5, §6, §7, §8

[5] = system: Staphylococcus aureus CB1406 (wild type); conditions: for mean Log10 CFU/catheter / log10 CFU reduction in bacterial counts: CB1406; for log10 CFU reduction in bacterial counts: rebound regimen
Experimental: as §1, §2, §3, §4, §5, §6, §7, §8

[6] = system: quinolone-resistant Staphylococcus aureus CB1840 (norA^up); conditions: for log10 CFU reduction in bacterial counts: rebound regimen
Experimental: as §1, §2, §3, §4, §5, §6, §7, §8

[7] = system: quinolone-resistant Staphylococcus aureus CB1840 (norA^up); conditions: I 30 mg/kg, rifampicin+levofloxacin 20+25 mg/kg
[8] = 14-day treatment regimen, Day 21, IP bid
[9] = 14-day treatment regimen, Day 7 (initiation of treatment)
[10] = rebound treatment regimen, Day 7 (initiation of treatment)
[11] = rebound treatment regimen, Day 14 (after 7 days of administration), IP bid, I 30 mg/kg, rifampicin+levofloxacin 20+25 mg/kg
[12] = rebound treatment regimen, Day 21 (7 days of rebound)
[13] = rebound treatment regimen, Day 28 (7 days of re-treatment)
[14] = following additional 7 treatment days

## CO[C@H]1/C=C/O[C@@]2(C)Oc3c(C)c(O)c4c(O)c(c(/C=N/N5CCC(N(C)C6([C@@H]7CCN(c8c(F)cn9c(=O)c(C(=O)O)cc(C%10CC%10)c9c8C)C7)CC6)CC5)c(O)c4c3C2=O)NC(=O)/C(C)=C\C=C\[C@H](C)[C@H](O)[C@@H](C)[C@@H](O)[C@@H](C)[C@H](OC(C)=O)[C@@H]1C [I]
[1]; [8]
  mean Log10 CFU/catheter: 2.70 Log10 CFU/catheter
[1]; 14 consecutive days bid
  log reduction in bacterial counts at the catheter site: 4.3 log
[2]; [9]
  mean Log10 CFU/catheter: 6.81 Log10 CFU/catheter
[2]; 14-day treatment regimen, Day 21, IP bid, I 30 mg/kg, rifampicin+levofloxacin 20+25 mg/kg
  mean Log10 CFU/catheter: 2.30 Log10 CFU/catheter
[2]; 14 consecutive days bid, I 30 mg/kg, rifampicin+levofloxacin 20+25 mg/kg
  log10 CFU reduction in bacterial counts at the catheter site: 4.5 log10 CFU
[2]; rebound regimen, following 7 days of treatment
  log10 CFU reduction in bacterial counts: 2.5 log10 CFU
[2]; [10]
  mean Log10 CFU/catheter: 6.81 Log10 CFU/catheter
[2]; [11]
  mean Log10 CFU/catheter: 4.26 Log10 CFU/catheter
[2]; [12]
  mean Log10 CFU/catheter: 2.40 Log10 CFU/catheter
[2]; [13]
  mean Log10 CFU/catheter: 2.45 Log10 CFU/catheter
[3]; [9]
  mean Log10 CFU/catheter: 7.03 Log10 CFU/catheter
[3]; following 7 days of treatment
  log10 CFU reduction in bacterial counts: 2.4 log10 CFU
[3]; following 7 days untreated
  log10 CFU reduction in bacterial counts: 4.4 log10 CFU
[3]; [14]
  log10 CFU reduction in bacterial counts: 4.5 log10 CFU
[3]; [10]
  mean Log10 CFU/catheter: 7.03 Log10 CFU/catheter
[3]; [11]
  mean Log10 CFU/catheter: 4.61 Log10 CFU/catheter
[3]; [12]
  mean Log10 CFU/catheter: 2.61 Log10 CFU/catheter
[3]; [13]
  mean Log10 CFU/catheter: 2.70 Log10 CFU/catheter
[4]; following 7 days of re-treatment
  Mean Log10 CFU reduction: 4.6 Log10 CFU
[4]; following 7 days of treatment
  Mean Log10 CFU reduction: 2.4 Log10 CFU
[4]; following 7 days untreated (rebound)
  Mean Log10 CFU reduction: 4.6 Log10 CFU
[5]; 14-day treatment regimen, Day 7 (before treatment)
  mean Log10 CFU/catheter: 6.82 Log10 CFU/catheter
[5]; following 7 days of treatment
  log10 CFU reduction in bacterial counts: 2.1 log10 CFU
[5]; following 7 days untreated
  log10 CFU reduction in bacterial counts: 4.6 log10 CFU
[5]; [14]
  log10 CFU reduction in bacterial counts: 4.7 log10 CFU
[5]; rebound treatment regimen, Day 7 (before treatment)
  mean Log10 CFU/catheter: 6.82 Log10 CFU/catheter
[5]; [12]
  mean Log10 CFU/catheter: 2.20 Log10 CFU/catheter
[5]; [13]
  mean Log10 CFU/catheter: 2.10 Log10 CFU/catheter
[5]; mouse, in vivo
  log reduction in bacterial colony counts at the catheter site: 4.6 log
[6]; [9]
  mean Log10 CFU/catheter: 7.01 Log10 CFU/catheter
[6]; following 7 days of treatment
  log10 CFU reduction in bacterial counts: 2.4 log10 CFU
[6]; following 7 days untreated
  log10 CFU reduction in bacterial counts: 4.9 log10 CFU
[6]; [14]
  log10 CFU reduction in bacterial counts: 4.9 log10 CFU
[6]; [10]
  mean Log10 CFU/catheter: 7.01 Log10 CFU/catheter
[6]; [11]
  mean Log10 CFU/catheter: 4.61 Log10 CFU/catheter
[6]; [12]
  mean Log10 CFU/catheter: 2.10 Log10 CFU/catheter
[6]; [13]
  mean Log10 CFU/catheter: 2.10 Log10 CFU/catheter
[7]; [8]
  mean Log10 CFU/catheter: 2.10 Log10 CFU/catheter
[7]; 14 consecutive days bid
  log10 CFU reduction in bacterial counts at the catheter site: 4.9 log10 CFU
